# Test system: activity of the sympathetic nerve
# Experiment: Test of measuring sympathetic nerve activity: power spectrum analysis of systolic blood pressure fluctuation (SBP-LF) when smelling the aroma
# Format: in vivo, human test subjects
# Protocol: The test samples were prepared by diluting ethyl 4-methoxybenzoate with ethanol to a concentration of 0.1 mass %, and how the aromas of those test samples influenced the sympathetic nerve activity was tested.
# (Test Method of Measuring Sympathetic Nerve Activity)
# A heart beat interval or blood pressure constantly change in a complex manner even at rest, and is under control of multiple nervous systems representing the sympathetic nerve and the parasympathetic nerve. Thus, it is known that the activity of respective nervous systems can be calculated by analyzing the frequency of a heart beat interval variation (a heart beat interval fluctuation) or a blood pressure variation (a blood pressure fluctuation). […] The activity of the sympathetic nerve is quantified from the intensity of the low frequency component (SBP-LF), and an influence of an aroma given off from the test sample on the activity of the sympathetic nerve was evaluated. […]
# A tonometry sensor was fitted at a carpal radius […] of a test subject, and is connected to a patient monitor for continuous measurement of blood pressure. […] Continuously measured blood pressure data was taken in a personal computer to undergo power spectrum analysis of the blood pressure fluctuation in systole using automatic nervous system activity analytical software. […]
smiles,measurement,setting,value
CCOC(=O)c1ccc(OC)cc1 [ethyl 4-methoxybenzoate],activity of the sympathetic nerve (determination from SBP-LF ratio),six test subjects in their 20's smelling aroma of 0.1 mass % test sample,the activity of the sympathetic nerve quieted down
same,SBP-LF ratio (SBP-LF value when smelling the aroma divided by SBP-LF value when not smelling the aroma),"six test subjects in their 20's, 0.1 mass % in ethanol, 20 μl soaked into cotton stuck below the nose, ethanol volatilized, 25° C., humidity 45%",smaller than 1

# — patent publication US20130143964A1, “S[…], AND COSMETIC COMPOSITION, FOOD, AND SUNDRY ARTICLE CONTAINING THE SAME” (priority 2010, published 2013)
